Reference: EPA's ToxRefDB 2

Columns and labels:
dog [1] = settings: Chronic toxicity, beagle, Oral, Feed, dose end: 52 week, group: systemic
mouse [2] = settings: Carcinogenicity, b6c3f1, Oral, Feed, dose end: 24 month, group: systemic
rat [3] = settings: Prenatal developmental toxicity study, wistar, Oral, Gavage/Intubation, dose end: 19 GD
rat [4] = settings: Combined chronic toxicity/carcinogenicity; wistar; Oral; Feed; dose end: 2 year; group: systemic; systemic / pathology microscopic / liver / cytoplasmic alteration + systemic / pathology microscopic / liver / hypertrophy + systemic / …
rabbit [5] = settings: Prenatal developmental toxicity study, himalayan, Oral, Gavage/Intubation, dose end: 28 GD
rat [6] = settings: Subchronic oral toxicity in rodents, wistar, Feed, dose end: 90 day, group: systemic
mouse [7] = settings: Subchronic oral toxicity in rodents, b6c3f1, Feed, dose end: 90 day, group: systemic
dog [8] = settings: Subchronic oral toxicity in nonrodent, beagle, Feed, dose end: 106 day, group: systemic
rat [9] = settings: Multigenerational reproductive toxicity study, sprague dawley, Oral, Feed, dose end: 2 generation
primate [10] = settings: Sub-acute repeat dose toxicity; Oral; Gavage/Intubation; dose end: 28 day; group: systemic; systemic / clinical chemistry / cholesterol / cholesterol, direct ldl + systemic / hematology / erythrocyte (rbc) count differential / …
primate [11] = settings: Sub-acute repeat dose toxicity, Oral, Gavage/Intubation, dose end: 5 day, group: systemic
rat [12] = settings: Sub-acute repeat dose toxicity, sprague dawley, Oral, Gavage/Intubation, dose end: 29 day, group: systemic
rat [13] = settings: Sub-acute repeat dose toxicity, sprague dawley, Oral, Gavage/Intubation, dose end: 7 day, group: systemic
dog [14] = settings: Subchronic oral toxicity in nonrodent, beagle, Capsule, dose end: 26 week, group: systemic, systemic / in life observation / body weight / body weight gain
rat [15] = settings: Subchronic oral toxicity in rodents, other, Feed, dose end: 91 day
mouse [16] = settings: Carcinogenicity, other, Oral, Feed, dose end: 18 month, group: systemic
dog [17] = settings: Chronic toxicity, beagle, Oral, Capsule, dose end: 52 week, group: systemic
rabbit [18] = settings: Prenatal developmental toxicity study, other, Oral, Gavage/Intubation, dose end: 19 GD
rat [19] = settings: Combined chronic toxicity/carcinogenicity; sprague dawley; Oral; Feed; dose end: 104 week; group: systemic; systemic / clinical chemistry / alanine aminotransferase (alt/sgpt) / alanine aminotransferase (alt/sgpt) + systemic / clinical chemistry / …
[20] = systemic / organ weight / prostate / nos
[21] = systemic / organ weight / spleen / nos
[22] = systemic / pathology microscopic / liver / degeneration + systemic / pathology microscopic / liver / fatty change + systemic / pathology …
[23] = systemic / pathology microscopic / lymph node / hemorrhage
[24] = group: developmental, developmental / developmental malformation / bone / enlarged fontanel + developmental / developmental malformation / bone / incomplete …
[25] = group: maternal, reproductive / reproductive performance / resorptions / resorptions + systemic / in life observation / body weight / body weight + systemic…
[26] = group: developmental, systemic / in life observation / body weight / fetal weight
[27] = group: developmental, systemic / in life observation / body weight / fetal weight + developmental / developmental malformation / bone / full supernumerary + …
[28] = group: maternal, systemic / in life observation / body weight / body weight gain + systemic / in life observation / clinical signs / defecation + systemic / …
[29] = systemic / clinical chemistry / triiodothyronine (t3) / triiodothyronine (t3), free
[30] = systemic / pathology microscopic / adrenal gland / fatty change + systemic / pathology microscopic / adrenal gland / hypertrophy
[31] = systemic / pathology microscopic / liver / hypertrophy
[32] = systemic / clinical chemistry / [other] / [other] + systemic / clinical chemistry / epoxide hydrolase / epoxide hydrolase + systemic / …
[33] = systemic / clinical chemistry / epoxide hydrolase / epoxide hydrolase + systemic / pathology microscopic / prostate / secretory fluid
[34] = group: offspring, systemic / in life observation / body weight / offspring (pup) weight
[35] = group: parental, systemic / organ weight / liver / absolute + systemic / organ weight / liver / relative to body weight + systemic / organ weight / thyroid …
[36] = group: reproductive, reproductive / reproductive performance / dystocia / dystocia
[37] = systemic / hematology / blood clotting / blood clotting - activated partial thromboplastin time + systemic / hematology / fibrinogen / …
[38] = systemic / hematology / blood clotting / blood clotting - activated partial thromboplastin time + systemic / in life observation / food …
[39] = systemic / clinical chemistry / cytochrome p450, nos / cytochrome p450, nos + systemic / in life observation / clinical signs / alopecia + …
[40] = systemic / in life observation / clinical signs / salivation + systemic / organ weight / liver / absolute + systemic / pathology microscopic…
[41] = systemic / clinical chemistry / aspartate aminotransferase (ast/sgot) / aspartate aminotransferase (ast/sgot) + systemic / clinical …
[42] = systemic / clinical chemistry / gamma glutamyl transferase (ggt) / gamma glutamyl transferase (ggt) + systemic / pathology microscopic / …
[43] = group: cholinesterase, cholinesterase / cholinesterase / cholinesterase / cholinesterase (che)
[44] = group: systemic, systemic / clinical chemistry / alkaline phosphatase (alp/alk) / alkaline phosphatase (alp/alk) + systemic / in life observation / clinical …
[45] = systemic / pathology microscopic / lung / adenoma + systemic / pathology microscopic / lung / carcinoma + systemic / in life observation / …
[46] = systemic / in life observation / body weight / body weight gain + systemic / in life observation / food consumption / food consumption + …
[47] = group: developmental, developmental / developmental malformation / bone / hypoplasia + developmental / developmental malformation / trunk / spina bifida
[48] = group: maternal, systemic / in life observation / body weight / body weight gain

N#CN=C1SCCN1Cc1ccc(Cl)nc1 [Thiacloprid]
LOAEL (dog [1]; [20]): > 32.2 mg/kg/day | NOAEL (dog [1]; [20]): ≥ 32.2 mg/kg/day | LEL (dog [1]; [21]): 1.39 mg/kg/day | NEL (dog [1]; [21]): < 1.39 mg/kg/day | LOAEL (mouse [2]; [22]): 234 mg/kg/day | NOAEL (mouse [2]; [22]): 5.7 mg/kg/day | LEL (mouse [2]; [23]): 5.7 mg/kg/day | NEL (mouse [2]; [23]): < 5.7 mg/kg/day | LEL (rat [3]; [24]): 50 mg/kg/day | LOAEL (rat [3]; [24]): 50 mg/kg/day | NEL (rat [3]; [24]): 10 mg/kg/day | NOAEL (rat [3]; [24]): 10 mg/kg/day | LEL (rat [3]; [25]): 50 mg/kg/day | LOAEL (rat [3]; [25]): 50 mg/kg/day | NEL (rat [3]; [25]): 10 mg/kg/day | NOAEL (rat [3]; [25]): 10 mg/kg/day | LEL (rat [4]): 2.5 mg/kg/day | LOAEL (rat [4]): 2.5 mg/kg/day | NEL (rat [4]): 1.2 mg/kg/day | NOAEL (rat [4]): 1.2 mg/kg/day | LEL (rabbit [5]; [26]): 10 mg/kg/day | LOAEL (rabbit [5]; [26]): 10 mg/kg/day | NEL (rabbit [5]; [27]): 2 mg/kg/day | NOAEL (rabbit [5]; [27]): 2 mg/kg/day | LEL (rabbit [5]; [28]): 10 mg/kg/day | LOAEL (rabbit [5]; [28]): 10 mg/kg/day | NEL (rabbit [5]; [28]): 2 mg/kg/day | NOAEL (rabbit [5]; [28]): 2 mg/kg/day | LEL (rat [6]; [29]): 1.9 mg/kg/day | NEL (rat [6]; [29]): < 1.9 mg/kg/day | LOAEL (rat [6]; systemic / in life observation / body weight / body weight): 28.6 mg/kg/day | NOAEL (rat [6]; systemic / in life observation / body weight / body weight + systemic / clinical chemistry / cholesterol / cholesterol + systemic / clinical…): 7.3 mg/kg/day | LOAEL (mouse [7]; [30]): 27.2 mg/kg/day | NOAEL (mouse [7]; [30]): < 27.2 mg/kg/day | LEL (mouse [7]; [31]): 19.9 mg/kg/day | NEL (mouse [7]; [31]): < 19.9 mg/kg/day | LOAEL (dog [8]; [32]): 34.7 mg/kg/day | NOAEL (dog [8]; [32]): 8.9 mg/kg/day | LEL (dog [8]; [33]): 8.5 mg/kg/day | NEL (dog [8]; [33]): < 8.5 mg/kg/day | LEL (rat [9]; [34]): 21 mg/kg/day | LOAEL (rat [9]; [34]): 21 mg/kg/day | NEL (rat [9]; [34]): 3.5 mg/kg/day | NOAEL (rat [9]; [34]): 3.5 mg/kg/day | LOAEL (rat [9]; [35]): 21 mg/kg/day | NEL (rat [9]; [35]): 3.5 mg/kg/day | NOAEL (rat [9]; [35]): 3.5 mg/kg/day | LEL (rat [9]; group: parental, systemic / organ weight / liver / absolute + systemic / organ weight / liver / relative to body weight + systemic / pathology microscopic / …): 21 mg/kg/day | LEL (rat [9]; [36]): 26 mg/kg/day | LOAEL (rat [9]; [36]): 26 mg/kg/day | NEL (rat [9]; [36]): 4.2 mg/kg/day | NOAEL (rat [9]; [36]): 4.2 mg/kg/day

CC[C@@H]1C[C@H](N(Cc2cc(C(F)(F)F)cc(C(F)(F)F)c2)C(C)=O)c2cc(C(F)(F)F)ccc2N1C(=O)OC(C)C
LEL (primate [10]): 10 mg/kg/day | LOAEL (primate [10]): > 140 mg/kg/day | NEL (primate [10]): < 10 mg/kg/day | NOAEL (primate [10]): ≥ 140 mg/kg/day | LOAEL (primate [11]; [37]): > 140 mg/kg/day | NOAEL (primate [11]; [37]): ≥ 140 mg/kg/day | LEL (primate [11]; [38]): 10 mg/kg/day | NEL (primate [11]; [38]): < 10 mg/kg/day | LOAEL (rat [12]; [39]): > 125 mg/kg/day | NOAEL (rat [12]; [39]): ≥ 125 mg/kg/day | LEL (rat [12]; [40]): 2 mg/kg/day | NEL (rat [12]; [40]): < 2 mg/kg/day | LOAEL (rat [13]; [41]): > 700 mg/kg/day | NOAEL (rat [13]; [41]): ≥ 700 mg/kg/day | LEL (rat [13]; [42]): 10 mg/kg/day | NEL (rat [13]; [42]): < 10 mg/kg/day

CCOC(=O)NCCOc1ccc(Oc2ccccc2)cc1 [Fenoxycarb]
LEL (dog [14]): 500 mg/kg/day | LOAEL (dog [14]): 500 mg/kg/day | NEL (dog [14]): 150 mg/kg/day | NOAEL (dog [14]): 150 mg/kg/day | LEL (rat [15]; [43]): 250 mg/kg/day | LOAEL (rat [15]; [43]): > 800 mg/kg/day | NEL (rat [15]; [43]): 80 mg/kg/day | NOAEL (rat [15]; [43]): ≥ 800 mg/kg/day | LEL (rat [15]; [44]): 80 mg/kg/day | LOAEL (rat [15]; [44]): 80 mg/kg/day | NEL (rat [15]; [44]): < 80 mg/kg/day | NOAEL (rat [15]; [44]): < 80 mg/kg/day | LEL (mouse [16]; systemic / pathology gross / spleen / enlarged): 5.75 mg/kg/day | NEL (mouse [16]; systemic / pathology gross / spleen / enlarged + systemic / pathology microscopic / liver / carcinoma + systemic / pathology microscopic / …): 1.1 mg/kg/day | LOAEL (mouse [16]; [45]): 51.5 mg/kg/day | NOAEL (mouse [16]; [45]): 5.33 mg/kg/day | LEL (dog [17]; systemic / clinical chemistry / phosphorus / phosphorus): 80 mg/kg/day | NOAEL (dog [17]; systemic / in life observation / body weight / body weight gain + systemic / clinical chemistry / phosphorus / phosphorus + systemic / organ…): 80 mg/kg/day | LOAEL (dog [17]; [46]): 260 mg/kg/day | NEL (dog [17]; [46]): 25 mg/kg/day | LEL (rabbit [18]; [47]): 300 mg/kg/day | LOAEL (rabbit [18]; [47]): 300 mg/kg/day | NEL (rabbit [18]; [47]): 200 mg/kg/day | NOAEL (rabbit [18]; [47]): 200 mg/kg/day | LEL (rabbit [18]; [48]): 200 mg/kg/day | LOAEL (rabbit [18]; [48]): 200 mg/kg/day | NEL (rabbit [18]; [48]): 100 mg/kg/day | NOAEL (rabbit [18]; [48]): 100 mg/kg/day | LEL (rat [19]): 24.7 mg/kg/day | LOAEL (rat [19]): 24.7 mg/kg/day | NEL (rat [19]): 8.1 mg/kg/day | NOAEL (rat [19]): 8.1 mg/kg/day
